According to patent US9227971B2, “Pyrazolo[1,5-a]pyrimidine compounds as mTOR inhibitors” (Merck Sharp & Dohme Corp., priority 2010, dated 2016):

How the values were obtained:
[1] = tested on: phosphorylated AKT Ser473 (pAKT S473), mTORC2 activity, PC3 cells; assay: mTOR target engagement assay, immunofluorescent cell-based, pAKT S473 readout (mTORC2 activity); details: Homo sapiens, PC-3, PC3 cells, compound treatment ninety minutes at 37° C.
Method in brief: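 After blocking, cells were stained overnight at 4 °C with anti-pAKT S473 antibody, then a fluorescent secondary; inhibition was read as reduced fluorescence intensity.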

[2] = tested on: phosphorylated 4E-BP1 Thr37/46 (p4E-BP1 Thr37/46), mTORC1 activity, PC3 cells; assay: mTOR target engagement assay, immunofluorescent cell-based, p4E-BP1 Thr37/46 readout (mTORC1 activity); details: Homo sapiens, PC-3, PC3 cells, compound treatment ninety minutes at 37° C.; read-out: p4E-BP1 Thr37/46 IC50
Method in brief: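 Read-out is fluorescence intensity of immunostained p4E-BP1 Thr37/46 in fixed PC3 cells, fitted to a logistic curve for IC50 with DMSO-only wells as top. Cells had been exposed to serial compound dilutions for ninety minutes at 37° C in 5% FBS medium with 0.25% DMSO.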

Row | SMILES | IC50 [1] | IC50 [2]
1 | COCc1cc(-c2ccc(-c3cnn4c(N)c(C(C)=O)c([C@@H]5C[C@H]6CC[C@@H](C5)N6C(=O)c5nnc[nH]5)nc34)cn2)ccc1OC [Compound 1.1.45, 1-(5-((1R,3s,5S)-8-(4H-1,2,4-triazole-3-carbonyl)-8-azabicyclo[3.2.1]octan-3-yl)-7-amino-3-(6-(4-methoxy-3-(methoxymethyl)phenyl)pyridin-3-yl)pyrazolo[1,5-a]pyrimidin-6-yl)ethanone] | 1 to 100 nM | 1 to 100 nM
2 | COc1ccc(-c2ccc(-c3cnn4c(N)c(C(C)=O)c([C@@H]5C[C@H]6CC[C@@H](C5)N6C(=O)c5nnc[nH]5)nc34)cn2)cc1 [Compound 1.1.46, 1-(5-((1R,3s,5S)-8-(4H-1,2,4-triazole-3-carbonyl)-8-azabicyclo[3.2.1]octan-3-yl)-7-amino-3-(6-(4-methoxyphenyl)pyridin-3-yl)pyrazolo[1,5-a]pyrimidin-6-yl)ethanone] | 1 to 100 nM | 1 to 100 nM
3 | COc1ccc(-c2ccc(-c3cnn4c(N)c(C(C)=O)c([C@@H]5C[C@H]6CC[C@@H](C5)N6C(=O)c5nnc[nH]5)nc34)cn2)c(F)c1 [Compound 1.1.47, 1-(5-((1R,3s,5S)-8-(4H-1,2,4-triazole-3-carbonyl)-8-azabicyclo[3.2.1]octan-3-yl)-7-amino-3-(6-(2-fluoro-4-methoxyphenyl)pyridin-3-yl)pyrazolo[1,5-a]pyrimidin-6-yl)ethanone] | 1 to 100 nM | 1 to 100 nM
4 | CC(=O)c1c([C@@H]2C[C@H]3CC[C@@H](C2)N3C(=O)C2(O)CC2)nc2c(-c3ccc(-c4ccccc4)nc3)cnn2c1N [Compound 1.1.48, 1-(7-amino-5-((1R,3s,5S)-8-(1-hydroxycyclopropanecarbonyl)-8-azabicyclo[3.2.1]octan-3-yl)-3-(6-phenylpyridin-3-yl)pyrazolo[1,5-a]pyrimidin-6-yl)ethanone] | 100 to 1000 nM | 100 to 1000 nM
5 | CC(=O)c1c([C@@H]2C[C@H]3CC[C@@H](C2)N3S(=O)(=O)O)nc2c(-c3ccc(-c4ccccc4)nc3)cnn2c1N [Compound 1.1.49, (1R,3s,5S)-3-(6-acetyl-7-amino-3-(6-phenylpyridin-3-yl)pyrazolo[1,5-a]pyrimidin-5-yl)-8-azabicyclo[3.2.1]octane-8-sulfonic acid] | 1000 to 10000 nM | > 10000 nM
6 | CC(=O)c1c([C@@H]2C[C@H]3CC[C@@H](C2)N3C(=O)c2cncc(O)c2)nc2c(-c3ccc(-c4ccccc4)nc3)cnn2c1N [Compound 1.1.50, 1-(7-amino-5-((1R,3s,5S)-8-(5-hydroxynicotinoyl)-8-azabicyclo[3.2.1]octan-3-yl)-3-(6-phenylpyridin-3-yl)pyrazolo[1,5-a]pyrimidin-6-yl)ethanone] | 100 to 1000 nM | 100 to 1000 nM
7 | CC(=O)c1c([C@@H]2C[C@H]3CC[C@@H](C2)N3C(=O)c2cnccc2O)nc2c(-c3ccc(-c4ccccc4)nc3)cnn2c1N [Compound 1.1.51, 1-(7-amino-5-((1R,3s,5S)-8-(4-hydroxynicotinoyl)-8-azabicyclo[3.2.1]octan-3-yl)-3-(6-phenylpyridin-3-yl)pyrazolo[1,5-a]pyrimidin-6-yl)ethanone] | 100 to 1000 nM | 100 to 1000 nM
8 | COCc1cnc(-c2ccc(-c3cnn4c(N)c(C(C)=O)c([C@@H]5C[C@H]6CC[C@@H](C5)N6C(=O)c5nnc[nH]5)nc34)cn2)s1 [Compound 1.1.52, 1-(5-((1R,3s,5S)-8-(4H-1,2,4-triazole-3-carbonyl)-8-azabicyclo[3.2.1]octan-3-yl)-7-amino-3-(6-(5-(methoxymethyl)thiazol-2-yl)pyridin-3-yl)pyrazolo[1,5-a]pyrimidin-6-yl)ethanone] | 100 to 1000 nM | 100 to 1000 nM
9 | COc1ccc(-c2ccc(-c3cnn4c(N)c(C(C)=O)c([C@H]5C[C@H]6CC[C@@H](C5)N6C(=O)c5nnc[nH]5)nc34)cn2)cc1F [Compound 1.1.54, 1-(5-((1R,3r,5S)-8-(4H-1,2,4-triazole-3-carbonyl)-8-azabicyclo[3.2.1]octan-3-yl)-7-amino-3-(6-(3-fluoro-4-methoxyphenyl)pyridin-3-yl)pyrazolo[1,5-a]pyrimidin-6-yl)ethanone] | 100 to 1000 nM | 100 to 1000 nM
10 | CC(=O)c1c([C@@H]2C[C@H]3CC[C@@H](C2)N3C(=O)c2nnc[nH]2)nc2c(-c3ccc(-c4ccn(C)n4)nc3)cnn2c1N [Compound 1.1.55, 1-(5-((1R,3s,5S)-8-(4H-1,2,4-triazole-3-carbonyl)-8-azabicyclo[3.2.1]octan-3-yl)-7-amino-3-(6-(1-methyl-1H-pyrazol-3-yl)pyridin-3-yl)pyrazolo[1,5-a]pyrimidin-6-yl)ethanone] | 1 to 100 nM | 1 to 100 nM
11 | CC(=O)c1c([C@@H]2C[C@H]3CC[C@@H](C2)N3C(=O)C(C)(CO)CO)nc2c(-c3ccc(-c4ccn(C)n4)nc3)cnn2c1N [Compound 1.1.56, 1-((1R,3s,5S)-3-(6-acetyl-7-amino-3-(6-(1-methyl-1H-pyrazol-3-yl)pyridin-3-yl)pyrazolo[1,5-a]pyrimidin-5-yl)-8-azabicyclo[3.2.1]octan-8-yl)-3-hydroxy-2-(hydroxymethyl)-2-methylpropan-1-one] | 100 to 1000 nM | 100 to 1000 nM
12 | COc1ccc(-c2ccc(-c3cnn4c(N)c(C(C)=O)c([C@@H]5C[C@H]6CC[C@@H](C5)N6C(=O)c5nnc[nH]5)nc34)cn2)cc1F [Compound 1.1.57, 1-(5-((1R,3s,5S)-8-(4H-1,2,4-triazole-3-carbonyl)-8-azabicyclo[3.2.1]octan-3-yl)-7-amino-3-(6-(3-fluoro-4-methoxyphenyl)pyridin-3-yl)pyrazolo[1,5-a]pyrimidin-6-yl)ethanone] | 1 to 100 nM | 1 to 100 nM
13 | COc1ccc(-c2ccc(-c3cnn4c(N)c(C(C)=O)c([C@@H]5C[C@H]6CC[C@@H](C5)N6C(=O)CO)nc34)cn2)cc1F [Compound 1.1.58, 1-((1R,3s,5S)-3-(6-acetyl-7-amino-3-(6-(3-fluoro-4-methoxyphenyl)pyridin-3-yl)pyrazolo[1,5-a]pyrimidin-5-yl)-8-azabicyclo[3.2.1]octan-8-yl)-2-hydroxyethanone] | 100 to 1000 nM | 100 to 1000 nM
14 | COc1ccc(-c2ccc(-c3cnn4c(N)c(C(C)=O)c([C@@H]5C[C@H]6CC[C@@H](C5)N6C(=O)C(C)(CO)CO)nc34)cn2)cc1F [Compound 1.1.59, 1-((1R,3s,5S)-3-(6-acetyl-7-amino-3-(6-(3-fluoro-4-methoxyphenyl)pyridin-3-yl)pyrazolo[1,5-a]pyrimidin-5-yl)-8-azabicyclo[3.2.1]octan-8-yl)-3-hydroxy-2-(hydroxymethyl)-2-methylpropan-1-one] | 1 to 100 nM | 1 to 100 nM
15 | CC(=O)c1c([C@@H]2C[C@H]3CC[C@@H](C2)N3C(=O)CO)nc2c(-c3ccc(-c4ccn(C)n4)nc3)cnn2c1N [Compound 1.1.60, 1-((1R,3s,5S)-3-(6-acetyl-7-amino-3-(6-(1-methyl-1H-pyrazol-3-yl)pyridin-3-yl)pyrazolo[1,5-a]pyrimidin-5-yl)-8-azabicyclo[3.2.1]octan-8-yl)-2-hydroxyethanone] | 100 to 1000 nM | 100 to 1000 nM
16 | CC(=O)c1c([C@@H]2C[C@H]3CC[C@@H](C2)N3C(=O)c2nnc[nH]2)nc2c(-c3ccc(-c4cccc(F)c4F)nc3)cnn2c1N [Compound 1.1.61, 1-(5-((1R,3s,5S)-8-(4H-1,2,4-triazole-3-carbonyl)-8-azabicyclo[3.2.l]octan-3-yl)-7-amino-3-(6-(2,3-difluorophenyl)pyridin-3-yl)pyrazolo[1,5-a]pyrimidin-6-yl)ethanone] | 1 to 100 nM | 1 to 100 nM
17 | CC(=O)c1c([C@@H]2C[C@H]3CC[C@@H](C2)N3C(=O)c2nnc[nH]2)nc2c(-c3ccc(-c4cccnc4F)nc3)cnn2c1N [Compound 1.1.62, 1-(5-((1R,3s,5S)-8-(4H-1,2,4-triazole-3-carbonyl)-8-azabicyclo[3.2.1]octan-3-yl)-7-amino-3-(2′-fluoro-2,3′-bipyridin-5-yl)pyrazolo[1,5-a]pyrimidin-6-yl)ethanone] | 1 to 100 nM | 1 to 100 nM
18 | CC(=O)c1c([C@@H]2C[C@H]3CC[C@@H](C2)N3C(=O)c2nnc[nH]2)nc2c(-c3ccc(-c4nnn(C)n4)nc3)cnn2c1N [Compound 1.1.63, 1-(5-((1R,3s,5S)-8-(4H-1,2,4-triazole-3-carbonyl)-8-azabicyclo[3.2.1]octan-3-yl)-7-amino-3-(6-(2-methyl-2H-tetrazol-5-yl)pyridin-3-yl)pyrazolo[1,5-a]pyrimidin-6-yl)ethanone] | 1 to 100 nM | 1 to 100 nM
19 | COc1c(F)cc(-c2ccc(-c3cnn4c(N)c(C(C)=O)c([C@@H]5C[C@H]6CC[C@@H](C5)N6C(=O)c5nnc[nH]5)nc34)cn2)cc1F [Compound 1.1.64, 1-(5-((1R,3s,5S)-8-(4H-1,2,4-triazole-3-carbonyl)-8-azabicyclo[3.2.1]octan-3-yl)-7-amino-3-(6-(3,5-difluoro-4-methoxyphenyl)pyridin-3-yl)pyrazolo[1,5-a]pyrimidin-6-yl)ethanone] | 100 to 1000 nM | 100 to 1000 nM
20 | COc1ccc(-c2ccc(-c3cnn4c(N)c(C(C)=O)c([C@@H]5C[C@H]6CC[C@@H](C5)N6C(=O)c5nnc[nH]5)nc34)cn2)c(F)c1F [Compound 1.1.65, 1-(5-((1R,3s,5S)-8-(4H-1,2,4-triazole-3-carbonyl)-8-azabicyclo[3.2.1]octan-3-yl)-7-amino-3-(6-(2,3-difluoro-4-methoxyphenyl)pyridin-3-yl)pyrazolo[1,5-a]pyrimidin-6-yl)ethanone] | 1 to 100 nM | 1 to 100 nM
